The source of these data is patent publication US8653064B2, “Crystalline forms of sodium 4-{[9-chloro-7-(2-fluoro-6-methoxyphenyl)-5H-pyrimido[5,4-D][2]benzazepin-2-yl]amino}-2-methoxybenzoate” (Millennium Pharmaceuticals, Inc., priority 2010, dated 2014).

SMILES strings stand for the structures.

A short description of series [1]: Solubility in water. Type of series: physicochemical.
Series [2] can be described thus: Gravimetric vapor sorption (GVS). Conditions: between 0-90% RH, 10% RH intervals, 25° C. Type of series: physicochemical.

In the case of `COc1cc(Nc2ncc3c(n2)-c2ccc(Cl)cc2C(c2c(F)cccc2OC)=NC3)ccc1C(=O)O` [Form 24, sodium 4-{[9-chloro-7-(2-fluoro-6-methoxyphenyl)-5H-pyrimido[5,4-d][2]benzazepin-2-yl]amino}-2-methoxybenzoate Form 24], the solubility in water result in series [1] is listed as “about 8 mg/mL”. In the case of `COc1cc(Nc2ncc3c(n2)-c2ccc(Cl)cc2C(c2c(F)cccc2OC)=NC3)ccc1C(=O)O` [Form 6, sodium 4-{[9-chloro-7-(2-fluoro-6-methoxyphenyl)-5H-pyrimido[5,4-d][2]benzazepin-2-yl]amino}-2-methoxybenzoate Form 6], in series [1], the solubility in water result is given as “greater than 10 mg/mL”. Moreover, the “uptake (change in weight of the sample) in GVS” value in series [2] worked out at 6%.

With `COc1cc(Nc2ncc3c(n2)-c2ccc(Cl)cc2C(c2c(F)cccc2OC)=NC3)ccc1C(=O)O` [free acid, 4-{[9-chloro-7-(2-fluoro-6-methoxyphenyl)-5H-pyrimido[5,4-d][2]benzazepin-2-yl]amino}-2-methoxybenzoic acid], in series [1], the solubility in water result is recorded as “about 10 μg/mL”.

For the compound `COc1cc(Nc2ncc3c(n2)-c2ccc(Cl)cc2C(c2c(F)cccc2OC)=NC3)ccc1C(=O)O` [Form 2, sodium 4-{[9-chloro-7-(2-fluoro-6-methoxyphenyl)-5H-pyrimido[5,4-d][2]benzazepin-2-yl]amino}-2-methoxybenzoate Form 2], in series [1], the solubility in water entry is on record as “about 8 mg/mL”.
